SMILES strings stand for the structures. pIC50: −log10 of the molar value.

Usually pIC50 stands for the negative decadic logarithm of the IC50, by convention in mol/L.

The target in test [1] is T1, ACL (Homo sapiens (Human), UniProt P53396). Kind of test: ADP-Glo Assay.
Target sequence in this assay (P53396 other isoform, or with tags, fused parts or gaps isoform P53396-2): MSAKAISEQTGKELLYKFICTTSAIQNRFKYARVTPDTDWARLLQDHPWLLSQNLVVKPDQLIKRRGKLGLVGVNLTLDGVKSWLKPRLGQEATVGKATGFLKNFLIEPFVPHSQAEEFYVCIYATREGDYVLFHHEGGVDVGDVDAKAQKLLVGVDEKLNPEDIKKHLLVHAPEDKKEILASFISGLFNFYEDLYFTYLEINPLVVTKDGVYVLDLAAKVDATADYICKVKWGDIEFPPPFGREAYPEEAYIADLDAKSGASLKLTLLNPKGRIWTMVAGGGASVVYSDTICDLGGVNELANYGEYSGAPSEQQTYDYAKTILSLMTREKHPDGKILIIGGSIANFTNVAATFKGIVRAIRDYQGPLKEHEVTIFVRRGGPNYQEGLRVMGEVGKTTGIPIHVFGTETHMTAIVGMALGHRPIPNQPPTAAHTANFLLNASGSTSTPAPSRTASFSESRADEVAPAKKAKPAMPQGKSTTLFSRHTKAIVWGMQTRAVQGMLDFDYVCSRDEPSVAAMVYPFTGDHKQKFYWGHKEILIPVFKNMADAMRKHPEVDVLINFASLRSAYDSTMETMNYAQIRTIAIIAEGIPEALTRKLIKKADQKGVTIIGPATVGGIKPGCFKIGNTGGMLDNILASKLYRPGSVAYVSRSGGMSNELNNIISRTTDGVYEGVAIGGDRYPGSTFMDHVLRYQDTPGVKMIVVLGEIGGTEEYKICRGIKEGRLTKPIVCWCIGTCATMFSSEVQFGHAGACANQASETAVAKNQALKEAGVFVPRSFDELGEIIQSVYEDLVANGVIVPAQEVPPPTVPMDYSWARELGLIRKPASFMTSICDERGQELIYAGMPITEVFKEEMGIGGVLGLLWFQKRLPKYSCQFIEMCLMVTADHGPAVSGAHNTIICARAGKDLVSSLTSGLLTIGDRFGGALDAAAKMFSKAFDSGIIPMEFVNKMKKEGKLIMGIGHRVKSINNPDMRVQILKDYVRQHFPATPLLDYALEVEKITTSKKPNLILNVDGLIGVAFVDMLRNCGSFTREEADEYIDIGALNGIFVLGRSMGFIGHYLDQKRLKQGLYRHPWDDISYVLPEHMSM
Test [2] addresses T1, ACL. Kind of test: ACLY-MDH Coupled Assay.
Target sequence in this assay (P53396 whole entry, species assumed): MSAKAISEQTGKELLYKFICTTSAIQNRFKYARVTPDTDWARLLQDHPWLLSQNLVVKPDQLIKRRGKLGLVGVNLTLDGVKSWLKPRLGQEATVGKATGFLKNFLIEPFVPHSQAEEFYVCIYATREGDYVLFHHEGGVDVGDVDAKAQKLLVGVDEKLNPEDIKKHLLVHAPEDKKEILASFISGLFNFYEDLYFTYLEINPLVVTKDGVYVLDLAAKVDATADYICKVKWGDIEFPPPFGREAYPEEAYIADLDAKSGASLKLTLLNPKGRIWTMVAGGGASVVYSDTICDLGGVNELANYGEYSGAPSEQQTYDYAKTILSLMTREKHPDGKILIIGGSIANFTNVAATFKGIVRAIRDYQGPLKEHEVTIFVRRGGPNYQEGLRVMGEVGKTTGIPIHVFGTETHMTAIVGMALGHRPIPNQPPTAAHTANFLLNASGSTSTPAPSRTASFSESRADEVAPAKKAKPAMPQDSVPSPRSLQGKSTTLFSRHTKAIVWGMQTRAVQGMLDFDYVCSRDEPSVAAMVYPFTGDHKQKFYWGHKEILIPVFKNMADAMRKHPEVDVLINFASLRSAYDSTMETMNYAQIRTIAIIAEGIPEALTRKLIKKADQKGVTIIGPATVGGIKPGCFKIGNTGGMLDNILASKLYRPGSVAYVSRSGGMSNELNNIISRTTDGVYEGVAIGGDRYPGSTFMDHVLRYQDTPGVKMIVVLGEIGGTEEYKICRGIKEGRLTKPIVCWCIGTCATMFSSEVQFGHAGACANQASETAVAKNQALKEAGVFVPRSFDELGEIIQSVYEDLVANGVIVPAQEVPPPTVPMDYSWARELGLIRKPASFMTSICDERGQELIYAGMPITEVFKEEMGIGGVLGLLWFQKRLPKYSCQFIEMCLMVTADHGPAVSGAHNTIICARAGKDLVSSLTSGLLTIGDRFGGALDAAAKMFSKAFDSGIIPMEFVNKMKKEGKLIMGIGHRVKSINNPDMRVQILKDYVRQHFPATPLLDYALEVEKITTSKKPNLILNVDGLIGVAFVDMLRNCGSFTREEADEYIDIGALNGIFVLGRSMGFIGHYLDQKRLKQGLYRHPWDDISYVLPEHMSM
Method: Compounds of the present invention were evaluated in an ACLY Coupled Assay.
The assay protocol for the Coupled Assay (below) was followed:
b) Add 1 μL cpds to 96 assay plate, Test cpd conc: 100/30/10 μM top dose, 3 folds dilution, 10+0+control (control: buffer without ACL+DMSO) points, 1000 rpm for 1 min, incubation at 25° C. for 60 min
[3] abbreviates: read-out: ACL-ADP-Glo (IC50), 3 nM ACL, 15 μM ATP, 3 μM CoA, 300 μM Citrate.
The mark [4] stands for this setting: read-out: ACL-MDH Coupled Assay (IC50), 8 nM ACL, 60 μM CoA Na2, 85 μM Citrate, 250 μM ATP, 250 μM NADH.

On to `O=C(O)c1cc(Cl)c(O)c(S(=O)(=O)Nc2cc(-c3ccccc3)c(F)cc2F)c1` [I-95, 3-chloro-5-(N-(4,6-difluoro-[1,1′-biphenyl]-3-yl)sulfamoyl)-4-hydroxybenzoic Acid], for which the pIC50 against ACL [1] and on ACL [2] was 6.30 to 7.30 throughout.
With `O=C(c1cc(Cl)c(O)c(S(=O)(=O)Nc2cc(-c3ccccc3)c(F)cc2F)c1)N1CCOCC1` [I-99, 3-chloro-N-(4,6-difluoro-[1,1′-biphenyl]-3-yl)-2-hydroxy-5-(morpholine-4-carbonyl)benzenesulfonamide], the values for the pIC50 against ACL [1] and at ACL [2] were 4.70 to 6.30 and 4.52 to 6.30, respectively.
With `O=C(c1cc(Cl)c(O)c(S(=O)(=O)Nc2cc(-c3ccccc3)c(F)cc2F)c1)N1Cc2ccccc2C1` [I-100, 3-chloro-N-(4,6-difluoro-[1,1′-biphenyl]-3-yl)-2-hydroxy-5-(isoindoline-2-carbonyl)benzenesulfonamide], the pIC50 against ACL [1] is 6.30 to 7.30; against ACL [2], 4.52 to 6.30.
Consider `O=C(c1cc(Cl)c(O)c(S(=O)(=O)Nc2cc(-c3ccccc3)c(F)cc2F)c1)N1CCCCC1` [I-102, 3-chloro-N-(2,4-difluoro-5-phenylphenyl)-2-hydroxy-5-[(piperidin-1-yl)carbonyl]benzene-1-sulfonamide], for which the pIC50 is 6.30 to 7.30 against ACL [1] and 4.52 to 6.30 against ACL [2].
Turning to `CO[C@H]1CCN(C(=O)c2cc(Cl)c(O)c(S(=O)(=O)Nc3cc(-c4ccccc4)c(F)cc3F)c2)C1` [I-103, 3-chloro-N-(2,4-difluoro-5-phenylphenyl)-2-hydroxy-5-[[(3S)-3-methoxypyrrolidin-1-yl]carbonyl]benzene-1-sulfonamide], the negative logarithm of the IC50 (pIC50) at ACL [1] (setting [3]) and on ACL [2] (setting [4]) was over 7.30 each time.
With `CO[C@@H]1CCN(C(=O)c2cc(Cl)c(O)c(S(=O)(=O)Nc3cc(-c4ccccc4)c(F)cc3F)c2)C1` [I-104, 3-chloro-N-(2,4-difluoro-5-phenylphenyl)-2-hydroxy-5-[[(3R)-3-methoxypyrrolidin-1-yl]carbonyl]benzene-1-sulfonamide], the pIC50 against ACL [1] was 6.30 to 7.30; against ACL [2], 4.52 to 6.30.
`O=C(c1cc(Cl)c(O)c(S(=O)(=O)Nc2cc(-c3ccccc3)c(F)cc2F)c1)N1CC[C@H](O)C1` [I-105, (S)-3-chloro-N-(4,6-difluoro-[1,1′-biphenyl]-3-yl)-2-hydroxy-5-(3-hydroxypyrrolidine-1-carbonyl)benzenesulfonamide]: the pIC50 at ACL [1] (setting [3]) and on ACL [2] (setting [4]) was over 7.30 in each case.
Regarding `O=C(c1cc(Cl)c(O)c(S(=O)(=O)Nc2cc(-c3ccccc3)c(F)cc2F)c1)N1CC[C@@H](O)C1` [I-106, (R)-3-chloro-N-(4,6-difluoro-[1,1′-biphenyl]-3-yl)-2-hydroxy-5-(3-hydroxypyrrolidine-1-carbonyl)benzenesulfonamide], the pIC50 on ACL [1] (setting [3]) is over 7.30; at ACL [2], 6.30 to 7.30.
With `O=C(O)c1cc(Cl)c(O)c(S(=O)(=O)Nc2cc(-c3ccccc3)ccc2F)c1` [I-107, 3-chloro-5-[(2-fluoro-5-phenylphenyl)sulfamoyl]-4-hydroxybenzoic Acid], the negative logarithm of the IC50 (pIC50) is 4.70 to 6.30 against ACL [1] and 4.52 to 6.30 at ACL [2].
`CC(=O)NCCOC(=O)c1cc(Cl)c(O)c(S(=O)(=O)Nc2cc(-c3ccccc3)c(F)cc2F)c1` [I-112, 2-acetamidoethyl 3-chloro-5-(N-(4,6-difluoro-[1,1′-biphenyl]-3-yl)sulfamoyl)-4-hydroxybenzoate]: the pIC50 at ACL [1] (setting [3]) is over 7.30; on ACL [2], 6.30 to 7.30.
On to `O=C(O)c1cc(Cl)c(O)c(S(=O)(=O)Nc2cc(-c3ccccc3)cc(F)c2F)c1` [I-115, 3-chloro-5-[(2,3-difluoro-5-phenylphenyl)sulfamoyl]-4-hydroxybenzoic Acid], for which the pIC50 on ACL [1] is 4.70 to 6.30; on ACL [2], 4.52 to 6.30.
As for `O=C(c1cc(Cl)c(O)c(S(=O)(=O)Nc2cc(-c3ccccc3)c(F)cc2F)c1)N1CC[C@H](F)C1` [I-118, (S)-3-chloro-N-(4,6-difluoro-[1,1′-biphenyl]-3-yl)-5-(3-fluoropyrrolidin-1-carbonyl)-2-hydroxybenzenesulfonamide], the figures for the pIC50 at ACL [1] (setting [3]) and against ACL [2] were over 7.30 and 6.30 to 7.30, respectively.

(Values after patent publication US11555012B2 (Nimbus Artemis, Inc., priority 2018, dated 2023).)
